Among the data in ChEMBL document CHEMBL3600372, “Scapairrins A-Q, Labdane-Type Diterpenoids from the Chinese Liverwort Scapania irrigua and Their Cytotoxic Activity” (J Nat Prod, 2015) are IC50 values, retold here.

One test concerns A549. The test can be described thus: Cytotoxicity against human A549 cells after 24 hrs by MTT assay. To be noted: A549, 24 h. It counts as functional, cell-based.
For another test, the system named is MDA-MB-231. The test can be described thus: Cytotoxicity against human MDA-MB-231 cells after 24 hrs by MTT assay. The test is classed as functional, cell-based. To be noted: MDA-MB-231, 24 h.
In a further test the test system is A2780. The test is described as follows: Cytotoxicity against human A2780 cells after 24 hrs by MTT assay. It counts as functional, cell-based. To be noted: A2780, 24 h.
The subject of another test is HeLa. The test is described as follows: Cytotoxicity against human HeLa cells after 24 hrs by MTT assay. The test is classed as functional, cell-based.
For a further test, the system named is HT-29. The test is described as follows: Cytotoxicity against human HT-29 cells after 24 hrs by MTT assay. It counts as functional, cell-based. To be noted: HT-29, 24 h.
For another test, the system named is HUVEC. The test is described as follows: Cytotoxicity against human HUVEC after 24 hrs by MTT assay. It counts as cell-based.

Molecules are shown by their SMILES. pIC50: −log10 of the molar value. A value given as a limit tells only on which side of the number the result lay.

Take `C=C([C@H](C)O)[C@@H]1C[C@H]2[C@@](C)(CC[C@@]3(O)C(C)(C)CCC[C@]23C)O1`: the pIC50 with A549, in the test on MDA-MB-231, in the test on A2780, in the test with HeLa, in the test on HT-29 and in the test on HUVEC was less than 5.00 each time.
Turning to `C=C([C@@H]1C[C@H]2[C@@](C)(CC[C@@]3(O)C(C)(C)CCC[C@]23C)O1)[C@@H](C)O`, the pIC50 with A549, in the test on MDA-MB-231, with A2780, in the test with HeLa, in the test with HT-29 and in the test on HUVEC was less than 5.00 each time.
With `C=C([C@H](C)O)[C@@H]1C[C@H]2[C@@](C)(CC[C@@]3(O)C(C)(C)CCC(=O)[C@]23C)O1`, the pIC50 in the test with A549, in the test with MDA-MB-231, in the test on A2780, with HeLa, with HT-29 and in the test on HUVEC was less than 5.00 throughout.
In the case of `C=C([C@@H]1C[C@H]2[C@@](C)(CC[C@@]3(O)C(C)(C)CCC(=O)[C@]23C)O1)[C@@H](C)O`, the pIC50 in the test on A549, with MDA-MB-231, in the test with A2780, in the test with HeLa, in the test on HT-29 and with HUVEC was less than 5.00 each time.
Regarding `C=C([C@H](C)O)[C@@H]1C[C@@H]2[C@@]3(C)[C@@H](O)CCC(C)(C)[C@]3(O)CC[C@@]2(C)O1`, the pIC50 with A549, in the test on MDA-MB-231, with A2780, in the test on HeLa, in the test with HT-29 and in the test on HUVEC was less than 5.00 in each case.
`C=C([C@@H]1C[C@@H]2[C@@]3(C)[C@@H](O)CCC(C)(C)[C@]3(O)CC[C@@]2(C)O1)[C@@H](C)O`: the pIC50 with A549, with MDA-MB-231, in the test on A2780, in the test with HeLa, with HT-29 and in the test with HUVEC was less than 5.00 each time.
Take `C=C(C(C)=O)[C@@H]1C[C@@H]2[C@@]3(C)[C@@H](O)CCC(C)(C)[C@]3(O)CC[C@@]2(C)O1`: the negative logarithm of the IC50 (pIC50) is less than 5.00 in the test with A549; 5.39 in the test on MDA-MB-231; 5.28 with A2780; 5.18 with HeLa; 5.24 in the test with HT-29; less than 5.00 in the test on HUVEC.
Take `C=C(C(C)=O)[C@H]1C[C@@H]2[C@@]3(C)[C@@H](O)CCC(C)(C)[C@]3(O)CC[C@@]2(C)O1`: the pIC50 was less than 5.00 with A549; 5.27 in the test on MDA-MB-231; 5.36 in the test with A2780; 5.26 with HeLa; 5.15 in the test on HT-29; less than 5.00 in the test with HUVEC.
As for `C=C(C(C)=O)[C@@H]1C[C@H]2[C@@](C)(CC[C@@]3(O)C(C)(C)CCC(=O)[C@]23C)O1`, the pIC50 is less than 5.00 in the test with A549; 5.30 with MDA-MB-231; 5.11 in the test with A2780; 5.06 in the test on HeLa; 5.17 in the test on HT-29; less than 5.00 in the test on HUVEC.
As for `C=C(C(C)=O)[C@@H]1C[C@H]2[C@@](C)(CC[C@@]3(O)C(C)(C)CCC[C@]23C)O1`, the pIC50 was less than 5.00 in the test with A549; 5.38 in the test with MDA-MB-231; 5.07 with A2780; 5.08 in the test with HeLa; 5.28 with HT-29; 5.52 in the test with HUVEC.
Consider `C/C=C(\C)[C@@H]1C[C@H]2[C@@](C)(CC[C@@]3(O)C(C)(C)CCC[C@]23C)O1`, for which the pIC50 in the test on A549, in the test with MDA-MB-231, in the test on A2780, in the test on HeLa, in the test with HT-29 and with HUVEC was less than 5.00 throughout.
In the case of `C/C=C(\C)[C@@H]1C[C@H]2[C@@](C)(CC[C@@]3(O)C(C)(C)CCC(=O)[C@]23C)O1`, the pIC50 in the test with A549, with MDA-MB-231, in the test with A2780, in the test with HeLa, with HT-29 and with HUVEC was less than 5.00 in each case.
Take `C[C@H]1O[C@]1(C)C(=O)C[C@@H]1[C@@]2(C)[C@@H](O)CCC(C)(C)[C@]2(O)CC[C@@]1(C)O`: the pIC50 in the test on A549, with MDA-MB-231, in the test with A2780, with HeLa, with HT-29 and with HUVEC was less than 5.00 throughout.
Regarding `C[C@@H]1O[C@@]1(C)C(=O)C[C@@H]1[C@@]2(C)[C@@H](O)CCC(C)(C)[C@]2(O)CC[C@@]1(C)O`, the pIC50 with A549, in the test with MDA-MB-231, in the test with A2780, in the test with HeLa, with HT-29 and in the test on HUVEC was less than 5.00 throughout.
As to `C[C@@H]1O[C@@]1(C)C(=O)C[C@H]1[C@](C)(O)CC[C@@]2(O)C(C)(C)CCC[C@]12C`, the pIC50 with A549, in the test on MDA-MB-231, in the test on A2780, with HeLa, in the test with HT-29 and in the test with HUVEC was less than 5.00 in each case.
On to `C[C@H]1O[C@]1(C)C(=O)C[C@H]1[C@](C)(O)CC[C@@]2(O)C(C)(C)CCC[C@]12C`, for which the pIC50 with A549, in the test with MDA-MB-231, in the test with A2780, in the test with HeLa, in the test on HT-29 and in the test on HUVEC was less than 5.00 each time.
On to `CC1(C)CCC[C@]2(C)C3=CC(=O)O[C@]3(C)CC[C@@]12O`, for which the pIC50 with A549, in the test with MDA-MB-231, with A2780, in the test with HeLa, in the test with HT-29 and in the test on HUVEC was less than 5.00 each time.
`C/C=C(\C)C(=O)C[C@]1(O)[C@@]2(C)CCCC(C)(C)[C@]2(O)CC[C@@]1(C)O`: the negative logarithm of the IC50 (pIC50) in the test with A549, in the test on MDA-MB-231, in the test on A2780, in the test with HeLa, with HT-29 and in the test with HUVEC was less than 5.00 in each case.
Take `C/C=C(\C)C(=O)C[C@@H]1[C@@]2(C)[C@@H](O)CCC(C)(C)[C@]2(O)CC[C@@]1(C)O`: the pIC50 in the test on A549, in the test with MDA-MB-231, in the test with A2780, with HeLa, with HT-29 and with HUVEC was less than 5.00 throughout.
Regarding `C/C=C(\C)C(=O)C[C@H]1[C@](C)(O)CC[C@@]2(O)C(C)(C)CCC[C@]12C`, the pIC50 in the test on A549, in the test with MDA-MB-231, in the test with A2780, in the test with HeLa, with HT-29 and in the test with HUVEC was less than 5.00 in each case.
For the molecule `COc1cccc2c1C(=O)c1c(O)c3c(c(O)c1C2=O)C[C@@](O)(C(=O)CO)C[C@@H]3O[C@H]1C[C@H](N)[C@H](O)[C@H](C)O1` [DOXORUBICIN], the pIC50 with MDA-MB-231 was 6.22; with HeLa it was 5.28; with HT-29, 5.77; with HUVEC it was 5.20.
